From patent US20070110885A1, “Method for controlling retention of an organic compound or of a plurality of organic compounds inside a liquid or solid phase and applications of said method, in particular in the agri-food domain” (priority 2002, published 2007)
Each block holds one compound with its values, some of them ahead of it.

Tests used:
Type in all cases: physicochemical
[1] = Evaluation of the aroma losses during gas bubbling (Tenax entrapment and pentane extraction); conditions: 50 ppm in NaCl 50 mM pH 7.5
Experimental: 4. Evaluation of the Losses During the Bubbling
The aroma losses upon bubbling have been evaluated by entrapment on an absorbing polymer (Tenax) of the gas effluent at the flask outlet and by extraction of the liquid phase with pentane. The same is done for all the gasses being used.
The loss test is made on a 50 mL of a 2-nonanone solution (50 ppm) in NaCl (50 mM, pH 7.5).
The gas is simultaneously bubbled (8 min) at the same flowrate of 20 mL.min^−1 in the flask, then the gas effluent is entrapped on Tenax at the flask outlet. This Tenax trap is afterwards desorbed on a TCT Chrompak apparatus coupled with a HP chromatograph provided with a FID detector.
The amount of aroma entrapped on Tenax is determined in comparison with an external calibration curve. This calibration curve is obtained as described hereinafter: 1 μl of 2-nonanone solution is deposited in pentane in the glass cotton of the Tenax tube upper part, then the Tenax tube is desorbed in the same conditions as for the analysis. Different concentrations have been tested.
The amount of aroma remaining in the liquid phase is determined by extraction of the aroma solution (5 mL) by pentane (5 mL). One μl of the organic phase is injected in split/splitless in CPG. A comparison is made with an external calibration, obtained by injection of 1 μl of 2-nonanone solution in pentane.

[2] = Static headspace measurement with redox modified by addition of molecules (DTT, potassium ferricyanide)
Experimental: 1. Preparation of the Reducing Medium
The reducing medium is obtained by addition of DTT(1,4-dithiothreitol). The ultrapure water employed for the solution preparation is degassed with a high gas flowrate during 1 h. La 2-nonanone solution (50 ppm) is prepared through addition of such aroma into the degassed water; the solution volume has been chosen so that a minimum of air exists between the plug and the solution. The thus prepared solution is stirred for homogenisation for 30 min.
An aliquot of this solution is added with DTT (10 g.l^−1) and then this solution is stirred for 30 min.
In order to prevent the dilution phenomenon, another protocol has been used: the degassed water is added with DTT (10 g.l^−1), then the aroma is added.
The thus prepared solutions are distributed at a level of 10 mL in 40 mL brown flasks (Supelco, France) closed by Mininert valves (Supelco). The flasks are pressurized with nitrogen for 1 min with a flowrate of 260 mL.min^−1. The overpressure is then evacuated. The flasks are then equilibrated during 1 h 30 in a water bath at 30° C. For each one of the conditions, 4 repetitions are realized.
2. Preparation of the Oxidizing Medium
The oxidizing medium is obtained by addition of potassium ferricyanide.
Two aroma solutions are prepared: for solution 1, the 2-nonanone is solubilized in water and then the solution is stirred for 30 min; for solution 2, the potassium ferricyanide is dissolved in water, then the 2-nonanone is added. This solution is afterwards stirred during 30 min.
The thus prepared solutions are distributed at a level of 10 mL in 40 mL brown flasks (Supelco, France) closed by Mininert valves (Supelco).
The flasks are then equilibrated during 1 h 30 in a water bath at 30° C. For each one of the conditions, 4 repetitions are realized.

[3] = Retention of aroma between aqueous phase (water) and organic liquid phase (dichloromethane) versus redox; conditions: water/dichloromethane mixture; FIG. 9
From the text: FIG. 9 illustrates the results of a measurement of the retention degree of 2-nonanone between an aqueous phase (water) and an organic liquid phase (dichloromethane) with non pressurized flasks (diamonds) or pressurized flasks with hydrogen (squares).
The experiment of Example 2 is realized, but in a mixture of water (aqueous phase)/dichloromethane (CH2Cl2, organic phase).

[4] = Static headspace measurement of aroma release from a liquid phase to the vapour phase versus redox potential modified by gas bubbling; conditions: for change of mass sharing coefficient Ki when the redox potential of the first liquid phase is lowered: liquid phase/gas phase; for effect of redox on aroma release/retention (headspace): FIG. 3, 4, 5
From the text: The study of the checking of the mass sharing coefficient Ki of an organic compound (i) between two phases, respectively a first liquid phase and a second vapour phase, as a function of the redox potential value includes the quantification of the organic compound (i) in the vapour phase at equilibrium, by the static headspace technique. In the examples, the method of the invention is illustrated with aroma-type organic compounds (i).
The static headspace technique consists in analyzing the vapours in equilibrium above a solution placed in a confined atmosphere at a given temperature. The vapour analysis in gas chromatography (CPG) gives the volatile compound concentration of the “head space”.
The aroma solutions are prepared in a solution of 50 mM NaCl, the pH of which has been adjusted to pH 3 with HCl (1N) or at pH 7.5 with NaOH (1N).
Furthermore, tests have also been realized in the presence of a lactoserum protein, the β-lactoglobuline, dispersed (3%) in a solution of 50 mM NaCl at pH 3 or pH 7.5, or in whole or skimmed milk.
The redox is modified by bubbling a gas (hydrogen, nitrogen, helium, or oxygen) at a flowrate of 20 mL.min^−1 for a previously determined time (8 min). The redox measurement is realized after the gas bubbling step with a redox measurement electrode connected to a pH meter-voltameter. The thus prepared solutions are distributed on the basis of 10 mL in brown flasks of 40 mL (Supelco, France) closed by Mininert valve plugs (Supelco). […]
A control is realized in the presence of air: the bubbling step is not realized, only the pressurization occurs, in the same conditions as the other gasses.
The flasks are then equilibrated in a water bath at 30° C. for 1 hr 30. At least 3 brown flasks are prepared for each gas, a flask serving only for one injection.
At the equilibrium, 1 mL of vapour phase is taken with a 1 mL gas syringe (SGE), then injected in a gas chromatograph (CPG) provided with a DB-WAX column (J&W Scientific, diameter 0.32 mm, length 30 m, phase thickness 0.5 μm) and a flame ionization detector. The injector and detector temperatures are respectively 250° C. and 260° C. The vector gas velocity (hydrogen) at 143° C. is of 37 cm.sec-^1. The signal acquisition is achieved with a chromatogram acquisition and treatment software developed in the laboratory.
Thus, the amount of aroma present in the vapour phase is determined for each gas.

aroma losses during bubbling ([1]; helium): 0.5% | aroma losses during bubbling ([1]; hydrogen): 0.3% | aroma losses during bubbling ([1]; nitrogen): 2% | aroma losses during bubbling ([1]; oxygen): 2.3% | aroma losses during bubbling ([1]; regardless of the gas employed, bubbling 8 min at 20 mL/min): < 3% | retention in the aqueous phase at low redox [3]: better retained in the aqueous phase | effect of a positive redox potential value on release ([4]; aqueous liquid phase contacted with 100% oxygen or air (21% oxygen), same with 100% nitrogen): favours the release or the transfer | retention within the liquid phase with helium gas ([4]; aqueous solution pH 7.5, helium, redox +400 mV): no significant difference | modification of the medium aroma release at low redox (headspace) ([4]; aqueous solution pH 7.5, hydrogen -320 mV versus nitrogen/oxygen about +500 mV, FIG. 1): ~−30% | effect when the atmosphere is neutral or oxidizing and the redox increases ([4]; aqueous solution pH 7.5, hydrogen, non pressurized flask, FIG. 8): effect inverses | effect at low redox under reducing atmosphere ([4]; aqueous solution pH 7.5, hydrogen, pressurized flask, FIG. 8): retention effect | modification of the aroma release at low redox (headspace) ([4]; aqueous solution, acid medium, FIG. 1): −20% | effect at high redox ([4]; skimmed milk, FIG. 7): no effect | retention effect at low redox ([4]; skimmed milk, FIG. 7): −20% | redox effect on the aroma release ([4]; whole milk, FIG. 7): do not show any redox effect
SMILES: CCCCCCCC(C)=O [2-nonanone]
effect of reducing the redox potential by a reducing compound ([2]; aqueous liquid phase, dithiothreitol (DTT) added): favours the 2-nonanone retention in the liquid phase | effect of increasing the redox potential by an oxidizing compound ([2]; aqueous liquid phase, potassium ferricyanide added): favours the 2-nonanone release or transfer towards the second gas phase | release in the vapour phase in a reducing medium versus oxidizing medium ([2]; water, 50 ppm, DTT 10 g/l versus potassium ferricyanide, FIG. 10): less 2-nonanone released in the vapour phase than in the oxidizing medium | difference of retention depending on the redox ([4]; aqueous solution with beta-lactoglobuline at 3%, pH 7.5 and acid medium, FIG. 2): does not show any difference of retention depending on the redox | effect of a negative level of redox potential on retention ([4]; liquid phase contacted with gas containing 100% hydrogen): favours the 2-nonanone retention in the liquid phase | change of mass sharing coefficient Ki when the redox potential of the first liquid phase is lowered [4]: growth of the mass sharing coefficient Ki value | change of mass sharing coefficient Ki at low redox potential ([4]; skimmed milk, pH 4.6): reduction of the mass sharing coefficient value Ki

SMILES: C=CCN=C=S [AITC, allyl isothiocyanate]
effect of redox on aroma release/retention (headspace) ([4]; conditions of Examples 2, 3, 4): −30% | change of mass sharing coefficient Ki when the redox potential of the first liquid phase is lowered [4]: growth of the mass sharing coefficient Ki value

effect of redox on aroma release/retention (headspace) ([4]; conditions of Examples 2, 3, 4): +20%
SMILES: CC(=O)C(C)=O [diacetyl]
change of mass sharing coefficient Ki when the redox potential of the first liquid phase is lowered [4]: increase of the mass sharing coefficient Ki

effect of redox on aroma release/retention (headspace), in words ([4]; conditions of Examples 2, 3, 4, FIG. 5): no effect | change of mass sharing coefficient Ki when the redox potential of the first liquid phase is lowered [4]: lack of significant modification
SMILES: CCCCCC(=O)OCC [ethyl hexanoate]
